The values that follow come from patent US7226904B2, “Agents and methods for promoting bone growth” (priority 2000, dated 2007).

For data set [1], the system named is Ovariectomized Sprague-Dawley rats. Nature of the data set: High-dose administration to ovariectomized Sprague-Dawley rats. In kind it is in vivo. To be noted: 100 ng/g to 30 μg/g body weight every day for 60 days. On the procedure: Ovariectomized Sprague-Dawley rats were allowed to lose bone from 60 days. Thereafter, animals were injected with glycosylated fADBP or non-glycosylated fADBP, at concentrations ranging from 100 ng/g of body weight to 30 μg/g of body weight every day for 60 days.

Another data set relates to normal adult rats. Kind of data set: Systemic (subcutaneous) administration to normal adult rats, pQCT bone densitometry of tibia. Conditions: 0.4 ng/g B.W. every 2 days for two weeks, vs saline. In kind it is in vivo, rat. The method, then:
After humane sacrifice, long bones were collected from rats subjected to agent treatment as described in Examples 1 and 2. The bones were evaluated using densitometry techniques with the Norland Medical Systems pQCT scanner. The densitometric parameters that were determined included: • 1. Total Content, which is the mineral content of the bone within a 1 mm slice. • 2. Total Density, which is the mean density of the total bone. • 3. Trabecular Content, which is the mineral content of the trabecular bone within a 1 mm slice. • 4. Trabecular Density, which is the mean density of the trabecular bone • 5. Cortical Content, which is the mineral content of the cortical bone within a 1 mm slice. • 6. Cortical Density, which is the mean density of the […]. • 7. Periosteal circumference in the “circular ring model” in mm. • 8. Endosteal circumference in the “circular ring model” in mm. • 9. Total area (mm^2), which is the cross sectional area of the bone after the soft tissue has been peeled off. • 10. Cortical area (mm^2), which is the area assigned to be pure cortical. • 11. Trabecular area (mm^2), which is the cross sectional area of the trabecular area after the cortical and subcortical area has been peeled off. Effects of Agents on Bone Density:
Non-glycosylated fADBP, at a dosage of 0.4 ng/g of body weight, was administered by subcutaneous injection into normal adult rats every two days for two weeks. The effect of this treatment on bone density and DpD levels was assayed as described above.
Glycosylated fADBP, at a dosage of 5.0 ng/g of body weight was administered by subcutaneous injection into normal adult rats every two days for two weeks. The effect of this treatment on bone density was assayed as described above.
Non-glycosylated DBP peptides of different lengths, at a dosage of 0.4 ng/g of body weight, were administered by subcutaneous injection into normal adult rats every two days for two weeks. The DBP peptides were derived from fADBP and comprised the first 3, 4, 5, 6, 7, 8, 9, 10, 11, 12, and 13 amino acids of SEQ ID NO. 1. After humane sacrifice, the tibia was collected from control and DBP peptide treated rats and analyzed using densitometry techniques with the Norland Medical Systems pQCT scanner. Statistical analysis was performed

Peptide text beside a SMILES is read from it. * marks the point of attachment. αGalNAc = CC(=O)N[C@@H]1[C@@H](O)[C@@H](O)[C@@H](CO)O[C@@H]1*

`CC(=O)N[C@H]1[C@@H](O[C@H](C)[C@H](NC(=O)[C@@H]2CCCN2C(=O)[C@@H](N)[C@@H](C)O)C(=O)N[C@@H](CCC(=O)O)C(=O)N[C@@H](CC(C)C)C(=O)N[C@@H](C)C(=O)N[C@@H](CCCCN)C(=O)N[C@@H](CC(C)C)C(=O)N[C@H](C(=O)N[C@@H](CC(N)=O)C(=O)N[C@@H](CCCCN)C(=O)N[C@@H](CCCNC(=N)N)C(=O)N[C@@H](CO)C(=O)N[C@@H](CCC(=O)O)C(=O)O)C(C)C)O[C@H](CO)[C@H](O)[C@@H]1O` [Glycosylated fADBP] (H-TPT(αGalNAc)ELAKLVNKRSE-OH): the toxic effect result in data set [1] is “no detectable toxic effect”.

With “DBP peptide 3: first 3 amino acids of SEQ ID NO. 1 (Thr Pro Thr) (TPT; listed as Homo sapiens)”, the “Total Bone Density” value with normal adult rats is listed as “significantly increased”. Still for that read-out and setting: the entry for “DBP peptide 4: first 4 amino acids of SEQ ID NO. 1 (Thr Pro Thr Glu) (TPTE; listed as Homo sapiens)” is “significantly increased”; for “DBP peptide 5: first 5 amino acids of SEQ ID NO. 1 (Thr Pro Thr Glu Leu) (TPTEL; listed as Homo sapiens)” it is “significantly increased”; for “DBP peptide 6: first 6 amino acids of SEQ ID NO. 1 (Thr Pro Thr Glu Leu Ala) (TPTELA; listed as Homo sapiens)” it is “significantly increased”. With “DBP peptide 7: first 7 amino acids of SEQ ID NO. 1 (Thr Pro Thr Glu Leu Ala Lys) (TPTELAK; listed as Homo sapiens)”, in the data set on normal adult rats, the “Total Bone Density” value is “significantly increased”. Take “DBP peptide 8: first 8 amino acids of SEQ ID NO. 1 (Thr Pro Thr Glu Leu Ala Lys Leu) (TPTELAKL; listed as Homo sapiens)”: the “Total Bone Density” value in the data set on normal adult rats is given as “significantly increased”.

Turning to “DBP peptide 10: first 10 amino acids of SEQ ID NO. 1 (Thr Pro Thr Glu Leu Ala Lys Leu Val Asn) (TPTELAKLVN; listed as Homo sapiens)”, the “Total Bone Density” value with normal adult rats was “significantly increased”. On the same count and under the same terms, then “DBP peptide 11: first 11 amino acids of SEQ ID NO. 1 (Thr Pro Thr Glu Leu Ala Lys Leu Val Asn Lys) (TPTELAKLVNK; listed as Homo sapiens)”, with “significantly increased”. With “DBP peptide 12: first 12 amino acids of SEQ ID NO. 1 (Thr Pro Thr Glu Leu Ala Lys Leu Val Asn Lys Arg) (TPTELAKLVNKR; listed as Homo sapiens)”, the “Total Bone Density” value with normal adult rats was “significantly increased”.
